From US11452737B2, “Compositions and methods for treating vascular malformation and related conditions” (priority 2015, dated 2022)
pIC50: −log10 of the molar value. Values after ≈ are worked out from the molar mass of the structure shown. Where two headings read alike, the source gives them in different places.

Tests used:
[1] = test system: HEK293T cells with GNAQ constructs; experiment: Western blot of protein levels after puromycin treatment; type: cell-based, human
Protocol: Treated cells were harvested with ice-cold radioimmunoprecipitation assay (RIPA) buffer (150 mM NaCl, 1.0% IGEPAL® CA-630, 0.5% sodium deoxycholate, 0.1% SDS, and 50 mM Tris, pH 8.0) (Sigma-Aldrich) plus phosphatase inhibitor cocktail (Cell signaling technology, #5870) and analyzed by western blot as follows: Quantitative protein samples were denatured in 4×LDS Sample buffer (Invitrogen) at 100° C. for 6 minutes. Samples were then subjected to SDS-PAGE by using Bio-Rad 4-15% gradient gels and transferred to PVDF membrane. The membranes were blocked with Li-cor ODYSSEY® Blocking buffer for 30 minutes at room temperature. Then the membranes were incubated with primary antibody (GaQ 1:125, Santa Cruz Biotechnology, sc-393; p-ERK 1:1000, Cell Signaling Technology, 4370; ERK 1:1000, Cell signaling Technology, 4696; HSP90 1:1000, Cell Signaling Technology, 4877) in a 1:1 solution of Li-cor ODYSSEY® blocking buffer and Tris-Buffered Saline and 0.1% Tween 20 (TBST) overnight at 4° C. The membranes were then washed three times for 10 min each in Tris-Buffered Saline and 0.1% Tween 20 (TBST) then probed with goat anti-mouse (IR-Dye 680RD) or goat anti Rabbit (IR-Dye-800CW) labeled secondary antibody in 1:1 Li-cor ODYSSEY® blocking buffer to TBST for 1 hour at room temperature. […] Bands were quantified using Image J software program.

[2] = test system: HEK293T cells transiently transfected with pcDNA3.1-E, pcDNA3.1-GNAQ, pcDNA3.1-R183Q, pcDNA3.1-Q209L; experiment: Puromycin dose response curve, CellTiter 96 cell proliferation assay, 96-well plates; type: cell-based; conditions: Homo sapiens, HEK-293T, 72 h, 3 days, read-out: half maximal inhibitory concentration (IC50)
Protocol: FIG. 5 is a plot showing a dose response curve for puromycin. HEK 293T cells (5×10^5 cells/well in six-well plate) were transiently transfected with pcDNA3.1-E, pcDNA3.1-GNAQ, pcDNA3.1-R183Q, pcDNA3.1-Q209L. Twenty-four (24) hours later, the cells were digested, counted and aliquoted into 96-well plates. Twenty-four (24) hours later, the cells were incubated with a series of puromycin concentrations. Three days later, the relative cell numbers were detected using a cell proliferation assay.
A dose response curve (cell number in response to puromycin concentration) for HEK293T cells transiently transfected pcDNA3.1-E, pcDNA3.1-GNAQ, pcDNA3.1-R183Q and pcDNA3.1-Q209L and treated with puromycin is shown in FIG. 5. Cells expressing either the pcDNA3.1-R183Q or pcDNA3.1-Q209L plasmids were more sensitive to puromycin compared with cells transfected with the pcDNA3.1-E or pcDNA3.1-GNAQ plasmids.
HEK293T cells (5×10^5 cells/well) in 6 well-plates were transiently transfected with 1 μg (pcDNA3.1-E, pcDNA3.1-GNAQ, pcDAN3.1-R183Q and pcDNA3.1-Q209L) per well using FUGENE 6®. Twenty-four (24) hours later, the cells were digested, counted and aliquoted into 96-well plates (1×10^4 cells/well). After another 24 hours, the transfected cells were incubated with a 100-fold concentration series of puromycin. Three days later, the relative cell numbers were detected using CELLTITER 96® Aqueous One Solution Cell Proliferation Assay Reagents (Promega #G3582) as follows: After being thawed at room temperature, 10 μl of CELLTITER 96® Aqueous One Solution Reagent was pipet into each well of the 96-well assay plate containing the samples in 100 μl of culture medium. Then, the plates were incubated at 37° C. for 2 hours in a humidified, 5% CO2 atmosphere. The absorbance at 490 nm of each sample was read by using SpectraMAX M5. Readings were normalized to that in pcDNA3.1-GNAQ cells receiving vehicle. Results were analyzed in GraphPad. Experiment was done in quadruplicate samples.

untransformed HMECs = experiment: Puromycin dose response curve in untransformed HMECs; type: cell-based, human; conditions: 1 ug/ml puromycin, after 48 hours
[3] = test system: HEK293T cells with pcDNA3.1-E, -GNAQ, -R183Q or -Q209L plasmids; experiment: RT-PCR gene expression with or without puromycin treatment; type: cell-based, human
Protocol: A panel of genes, important to the regulation of the pathways downstream of GNAQ, were evaluated by RT-PCR in mRNA samples gathered from cells with the pcDNA3.1-E, pcDNA3.1-GNAQ, pcDNA3.1-R183Q or pcDNA3.1-Q209L plasmids with or without puromycin treatment of 0.04 ug/ul (FIGS. 6A-6F, n=3 per group from 3 separate experiments).
HEK293T cells (5×10^5 cells/well) were transfected with 1 μg plasmid (pcDNA3.1-GNAQ, pcDAN3.1-R183Q or pcDNA3.1-Q209L) in 6-well plates. Twenty-four (24) hours later, cells were digested and re-plated into 6-well plates. Twenty-four (24) hours later, the plates were incubated in DMEM (10% FBS) with or without 0.04 μg/ml puromycin. Three days later, total RNA of treated HEK293T cells were isolated by using RNEASY® Mini Kit (QIAGEN) as follows. Media was aspirated, and the cells washed twice with PBS. 350 μl Buffer RLT with B-Mercaptoethanol was added to the each well. The lysate was pipetted into a microcentrifuge tube and pipetted to mix. 1 volume of 70% ethanol was added to the lysate. Lysate was transferred to an RNEASY® spin column placed in a 2 ml collection tube (supplied) and centrifuged. RNEASY® spin column was washed as per kit instructions. 50 μl RNase-free water was added directly to the center of the spin column membrane which was centrifuged for 1 min at 12,000 rpm to elute the RNA. Three separate experiments were performed to obtain triplicate mRNA and protein samples for analysis.
Reverse Transcription was carried out with the using the High Capacity cDNA Reverse Transcription Kits and based on Applied Biosystems' protocol. 2×RT master mix is prepared using the kit components before preparing the reaction plate and kit components allowed to thaw on ice. Referring to one reaction amount of components, the volume of components needed to prepare the required number of reactions was calculated. Then 10 μl of 2×RT master mixes was pipetted into each well of 500 μl PCR clean tubes. 10 μL of RNA sample (1 μg) was pipetted into each tube which is then mixed, centrifuged and then placed in a thermal cycler with the program of (10 min at 25° C., 120 min at 37° C., 5 min at 85° C., then 4° C.). After the thermal cycler, 1 μl RNase H was added into the tubes and incubated at 37° C. for 20 min. Finally, 600 μl Nuclease-free H2O was added into each tube.
The primers for Real-Time PCR were designed online with Primer-BLAST software tool. For each gene, at least three primers at different locations were designed based on the cDNA of the genes. The primer concentrations were normalized and were adjusted to 5 pmol/μ1. The real-time PCR reaction mixture of 20 μl included 10 μl SYBR Green Mix (2×), 2 μl primer pair mix, and 8 μl diluted cDNA solution. The Real-time PCR of loaded samples were run on CFX Connect™ real-time PCR system (Bio-rad) with extension steps of (50° C. 2 min 1 cycle, 95° C. 10 min 1 cycle, 95° C. 15 sec then 60° C. 1 min 40 cycles, 72° C. 10 min, 1 cycle) followed by a melting curve analysis (from 55° C. to 95° C. increments 0.05° C./Sec) to guarantee absence of nonspecific amplification. The primers with a unique peak in melting curve were chosen for next step. The primers were also only used for next experiments after they were confirmed by obtaining the same results from other primers for the same gene. With the final confirmed primers, the RNA levels in triplicate samples, obtained from three separate experiments, were measured.

[4] = test system: HEK293T cells transiently transfected with empty, wildtype, R183Q, or Q209L constructs; experiment: MTT assay dose response curve for puromycin, 24 well plate, transiently transfected cells; type: cell-based; conditions: Homo sapiens, HEK-293T, 72 h, puromycin 3 days, read-out: Half maximal inhibitory concentration (IC50), cell number
Protocol: FIG. 1 is a plot showing response of cells as a function of puromycin concentration. HEK293T cells were transiently transfected with empty, wildtype, R183Q, or Q209L constructs and then exposed to puromycin for 3 days before cell number was assessed by MTT assay in 24 well plate.
To determine whether mutations in GNAQ conferred increased sensitivity to puromycin, an MTT (3-(4,5-dimethylthiazol-2-yl)-2,5-diphenyltetrazolium bromide) assay dose response curve was done with HEK239 cells (including standard curve and normalization) after transient transfection. Puromycin exposure in HEK293 cells transiently transfected with R183Q or Q209L (no puromycin selection) over greater than a 100 fold dose range was then tested.
HEK 293 cells (5×10^5 cells/well) in 6 well-plates were transient transfected with 1 μg of construct (pcDNA3.1-GNAQ, pcDAN3.1-R183Q and pcDNA3.1-Q209L) per well. Twenty-four (24) hours later, the cells were digested, counted and aliquoted into 24 well plates (0.8×10^5 cells/well). After another 24 hours, the transfected cells were incubated with various concentrations of puromycin.
Three days later, the relative cell numbers were detected using MTT assay reagents (CellTiter 96® Aqueous One Solution Cell Proliferation Assay Reagents) as follows. After being thawed at room temperature, 40 μl the CellTiter 96® Aqueous One Solution Reagent was pipetted into each well of the 24-well assay plate containing the samples in 200 μl of culture medium. Then, the plates were incubated at 37° C. for 2 hours in a humidified, 5% CO2 atmosphere. The supernatants were transferred into 96-well plates. The absorbance at 490 nm of each sample was read by using a plate reader (SpectraMax M5). Optical density directly correlated with viable cell quantity.
A software program (GraphPad Prism) was used to generate Dose Response Curves. A non-linear regression was done to graph the Log [puromycin molar concentration] versus Maximal Inhibitory Response. The GraphPad program was used to calculate the IC50 of puromycin for each cell line (dose that gives a 50% maximal response) and the 95% confidence intervals. A 2-way ANOVA (Dose by Construct) was done to determine if there is a significant effect of construct upon puromycin effect with p-value of <0.05 used to determine significance.

[5] = all three constructs, puromycin alone, significant

COc1ccc(C[C@H](N)C(=O)N[C@H]2[C@@H](O)[C@H](n3cnc4c(N(C)C)ncnc43)O[C@@H]2CO)cc1 [puromycin]
ID3 protein levels ([1]; puromycin treatment, pcDNA3.1-GNAQ, pcDNA3.1-R183Q or pcDNA3.1-Q209L cells): further increased | Gαq protein levels ([1]; puromycin versus vehicle treated cells): No significant differences | IC50 ([2]; HEK293T with pcDNA3.1-E (empty)): 0.084 µg/mL (≈ 0.178 µM) | IC50 ([2]; HEK293T with pcDNA3.1-GNAQ (wildtype)): 0.091 µg/mL (≈ 0.193 µM) | IC50 ([2]; HEK293T with pcDNA3.1-Q209L): 0.051 µg/mL (≈ 0.108 µM) | IC50 ([2]; HEK293T with pcDNA3.1-R183Q): 0.064 µg/mL (≈ 0.136 µM) | cells killed (untransformed HMECs): 100% | ID3 mRNA levels ([3]; R183Q and Q209L mutant cells, puromycin, compared to wildtype puromycin treated and vehicle treated mutant cells): upregulated | TRIO mRNA levels ([3]; all three constructs, puromycin alone, not significant): up-regulated | PRKCQ mRNA levels [3, 5]: up-regulated | TEAD3 mRNA levels [3, 5]: up-regulated | PIK3C2B mRNA levels ([3]; all three constructs, puromycin alone, significant only in Q209L cells): up-regulated | TSC22D3 mRNA levels ([3]; cells expressing R183Q or Q209L plasmids, puromycin 0.04 ug/ml): further decreased | ID3 mRNA levels ([3]; wildtype cells, puromycin 0.04 ug/ml, compared to vehicle treated): up-regulated | TSC22D3 mRNA expression ([3]; wildtype cells, puromycin 0.04 ug/ml, compared to vehicle treated wildtype): decreased | pIC50 ([4]; Q209L construct): 6.72 | pIC50 ([4]; R183Q construct): 6.72 | pIC50 ([4]; empty construct): 6.54 | pIC50 ([4]; wildtype GNAQ construct): 6.54
